“And” between values parts separate entries of the source, which are not always exact repeats. Identical values can stand only once. Square brackets hold non-standard residues; d marks the D form. Peptide text beside a SMILES is read from it. * marks the point of attachment. Palmitoyl = CCCCCCCCCCCCCCCC(=O)*; Nspe = C[C@H](NCC(=O)O)c1ccccc1; AEEA = NCCOCCOCC(=O)O; Nlys = NCCCCNCC(=O)O
Tests used:
Type in all cases: physicochemical
[1] = Cryo-TEM, size of nano-assemblies; conditions: vitrified sample
Experimental: Sizes of selected lipopeptoid nano-assemblies were verified using a field emission cryo-electron microscope (JEOL JEM3200FSC), operating at 200 kV and at −187°C, configured in bright field mode and zero loss energy filtering (omega type) with a slit width of 20 eV. Sizes of selected lipopeptoids nano-assemblies were measured from photographs recorded using a Gatan Ultrascan 4000 CCD camera. Vitrified specimens were prepared on Quantifoil 3.5/1 holey carbon copper grids (hole size of 3.5 μm). The grids were first plasma cleaned using a Gatan Solarus 9500 plasma cleaner and then transferred into the environmental chamber of an automated FEI Vitrobot device at room temperature and 100% humidity. Thereafter, 3 μL of the sample solution was applied on the grid, which was blotted twice for 5 s and then vitrified in a 1:1 mixture of liquid ethane and propane at a temperature of −180°C. The grids with vitrified sample solution were maintained at liquid nitrogen temperature and then cryo-transferred to the microscope.

[2] = Small angle X-ray scattering (SAXS), size of nano-assemblies; conditions: 1 wt.% peptoid solution, fitted
Experimental: SAXS experiments were performed on the bioSAXS beamline B21 at Diamond Light Source, U.K., using a previously established protocol (Castelletto et al., [2019]). Briefly, solutions containing 1 wt.% peptoid were loaded into a set of PCR tubes fitted in the 96-well plate of the BioSAXS robot. From there, the robot loaded the solutions into a quartz capillary perpendicularly placed in the path of the incident X-ray beam. SAXS data, collected using a Dectris PILATUS 2 M detector at a fixed camera length of 3.9 m, is presented as scattering intensity vs. q = 4π sinθ /λ (2θ: scattering angle; wavelength: λ = 1 Å). See Supplementary Information for description of SAXS data fitting.

[3] = Analytical RP-HPLC elution (ACN %) as measure of hydrophobicity; conditions: chromatographic, C18 column (250 × 4.6 mm Nucleosil), 30 min gradient 5–95% ACN in water with 0.1% TFA, 1 mL/min, used as measure of hydrophobicity
Experimental: Peptoids were synthesized on resin manually or with an automated synthesizer (Prelude X, Gyros Protein Technologies) using a solid phase “submonomer” approach (Zuckermann et al., [1992]; Lau, [2014]; Lau et al., [2017]). Briefly, the Fmoc protected rink amide resin was deprotected with 20% piperidine for 20 min, applied twice. Each residue was added by treatment to a mixture of bromoacetic acid (20 times excess) and diisopropyl-carbodiimide (18.5 times excess) for 15 min, followed by a halo-substitution reaction with appropriate primary amine submonomers. For the attachment of a di ethylene glycol linker, Fmoc-amino-3,6 dioxaoctanoic acid (1.8 mmol), and equivalent moles of HBTU ((2-(1H-benzotriazol-1-yl)-1,1,3,3-tetramethyluronium hexafluorophosphate) were reacted with the terminal amino group in the presence of N,N-diisopropylethylamine (DIPEA, 2.7 mmol). This reaction was carried out for 2 h at 37°C and repeated a second time for 4 h, to ensure coupling. Like resin Fmoc deprotection, EG2 N-terminal Fmoc deprotection was achieved using 20% piperidine for 20 min, applied twice. Different chain lengths of saturated fatty acids, i.e., pelargonic acid (C8), lauric acid (C11), and palmitic acid (C15) were subsequently coupled using the HBTU amide coupling as reported previously (Lau et al., [2017]). After solid phase synthesis, the resin was cleaved and side chains were deprotected for 30 min using a standard TFA:TIPS:H2O cocktail (95:2.5:2.5 v/v/v). Excess TFA was removed using a rotary evaporator and the peptoid was precipitated from the oily product using diethyl ether. The collected material was dissolved in small amounts of 1:1 acetonitrile:water (ACN:H2O) to ease sample transfer, and further dried in a lyophilizer. Dried crude products were weighed and dissolved in ACN-H2O mixtures for preparative RP-HPLC (Dionex Ultimate 3000) with a C18 column (250 × 10 mm Phenomenex Jupiter). Fractions containing the pure product were identified by ESI-LC-MS (Agilent 1200 with a Poroshell C18 column coupled to an Agilent 6130 mass spectrometer) and by analytical RP-HPLC (Dionex P680) using a C18 column (250 × 4.6 mm “Nucleosil”) with a 30 min gradient of 5–95% acetonitrile (ACN) in water containing 0.1% TFA at 1 mL/min. The purified fractions of peptoids and lipopeptoids were later stored as aliquots at −20°C until further analysis.

[4] = Dynamic light scattering (DLS), hydrodynamic radius of nano-assemblies; conditions: 0.4 wt.% in deionized water, 0.22 μm filtered, 25°C, detection angle 90°
Experimental: DLS measurements were carried out at room temperature (25°C) using an ALV/LSE-5004 instrument equipped with He-Ne laser (λ = 632.8 nm) at a detection angle of θ = 90° (Lau et al., [2017]). Samples were prepared at a concentration of 0.4 wt.% in deionized water (DI) water and further filtered using 0.22 μm pore size surfactant-free cellulose acetate (SFCA) syringe filters (Sigma Aldrich, UK) to avoid particulate contamination.

[5] = Critical aggregation concentration (CAC) Nile red fluorescence assay; conditions: room temperature
Experimental: Nile red (NR) fluorescence was used to measure critical aggregation concentration (CAC) for the synthesized lipopeptoids. Lipopeptoids were dissolved at 2.5 × 10^−2 to 1 wt.% in a dilute solution of Nile red (0.25 μg/100 mL, i.e. ~10 nM concentration) prepared in water. NR was excited at 552 nm and emission was recorded at room temperature in the range 550–750 nm using a 10.0 × 5.0 mm^2 quartz cell (Jasco spectrofluorimeter FP-6500). The intensity of the peak centered around 610 nm is shown in the data presented in Section results and discussion.
We first examined with a CAC assay whether coupling a hydrophobic tail to AMPMs and inserting the kk and EG2 components is a viable design for generating self-assembling lipopeptoids. The CAC measures the concentration above which hydrophobic pockets (e.g., lipophilic cores of micelles) are formed, and lower CACs indicate higher propensities of self-assembly. In our experiments, the CAC is indicated by an inflection in the increase in emission intensity of a lipophilic fluorophore tracer (Nile Red) that emits more strongly when partitioned into hydrophobic lower dielectric environments (see Figure S6 for an example analysis).

SMILES: CCCCCCCCCCCCCCCC(=O)NCCOCCOCC(=O)N(CCCCN)CC(=O)N(CC(=O)N(CC(=O)N(CCCCN)CC(=O)N(CC(=O)N(CC(=O)N(CCCCN)CC(=O)N(CC(=O)N(CC(=O)N(CCCCN)CC(=O)N(CC(=O)N(CC(N)=O)[C@@H](C)c1ccccc1)[C@@H](C)c1ccccc1)[C@@H](C)c1ccccc1)[C@@H](C)c1ccccc1)[C@@H](C)c1ccccc1)[C@@H](C)c1ccccc1)[C@@H](C)c1ccccc1)[C@@H](C)c1ccccc1 [C15-EG2-(kss)4] ({Palmitoyl-AEEA}-[Nlys][Nspe][Nspe][Nlys][Nspe][Nspe][Nlys][Nspe][Nspe][Nlys][Nspe][Nspe]-NH2)
- diameter of smallest non-compact aggregates (TEM) [1]: ca. 5 nm
- radius of nano-assemblies (SAXS) [2]: 24 ± 5 nm
- elution ACN % (RP-HPLC retention) [3]: 82 ACN %
- hydrodynamic radius (RH) [4]: ca. 50 nm
- CAC ([5]; Nile red fluorescence (~10 nM NR in water), lipopeptoids 2.5 × 10^-2 to 1 wt.%, excitation 552 nm, peak around 610 nm, inflection in emission intensity): 38 µM and 38 ± 3 µM
- CAC ([5]; Nile red fluorescence in water, CAC expressed in wt.%): 0.0075 wt.%
